Measured values as given in patent publication US20250205173A1, “DERMAL AND TRANSDERMAL ADMINISTRATION OF TREPROSTINIL AND SALTS THEREOF” (CORSAIR PHARMA, INC., priority 2019, published 2025).

Tests used:
[1] = cited from earlier work
[2] = In vitro skin permeability assay, vertical Franz diffusion cell; assay type: in vitro ADME; settings: human epidermis from different donors, 32° C., N=4 per donor
Protocol: A skin permeability assay was performed using a vertical Franz diffusion cell having a diffusion area of 0.64 cm^2 and a volume of 7.5 mL. The assay was conducted at 32° C. with continuous stirring. Heat-separated human cadaver epidermis was used in the assay, the epidermis being stored at −20° C. after the heat-stripping procedure. The human epidermis was thawed prior to being mounted on the diffusion cell. Treprostinil was applied on the skin, and the diffusion cell was closed by screw-cap. At various time intervals, whole medium or receptor medium was replaced by fresh medium. Part of the collected medium was used to calculate the cumulative skin permeability of treprostinil at 72 hours. The skin permeability of treprostinil was evaluated using human epidermis from different donors. N=4 replicates were performed for treprostinil tested on human epidermis from a particular donor.

[3] = Skin irritation study of treprostinil reservoir-type transdermal patch, Draize scale; assay type: in vivo, Göttingen Minipigs; parameters: key to Edema score: 0: No edema; 1: Very slight edema (barely perceptible); 2: Slight edema (edges of area well defined by definite raising); 3: Moderate edema (raised about 1 mm); 4: Severe edema (raised >1 mm and extending beyond area of exposure); key to Erythema score: 0: No erythema; 1: Very slight erythema (barely perceptible); 2: Well-defined erythema; 3: Moderate to severe erythema; 4: Severe erythema (beet redness) to slight eschar formation (injuries in depth); settings: for Edema score / Erythema score: 10 mg patch
Protocol: The pig is frequently used in studies involving dermal or transdermal administration of a drug because the skin of the pig is very similar to human skin. Skin irritation following transdermal administration of treprostinil from a reservoir-type transdermal patch was assessed in Göttingen Minipigs® (Marshall BioResources, North Rose, New York). The treprostinil-containing reservoir transdermal patch was a 32 cm^2 circular patch with a 6 cm^2 gel-sealed area and a 26 cm^2 peripheral skin-adhesive area. The placebo reservoir transdermal patch was a 39 cm^2 oval patch with a 12 cm^2 gel-sealed area and a 27 cm^2 peripheral skin-adhesive area. The reservoir of the patches comprised a gel composed of hydroxypropyl cellulose and containing ethanol, isopropyl myristate and 10 mg treprostinil or no active agent for the placebo patch. The reservoir was packaged by heat seal between a backing layer composed of metalized polyester/ethylene-vinyl acetate and a semi-permeable microporous membrane composed of polyethylene. A transparent release liner that protected the gel reservoir area and the peripheral adhesive area was peeled off immediately prior to patch application. The patches had the structure of the patch depicted in FIG. 1. To facilitate patch application (dosing) and to ensure animal safety during the dosing procedure, the minipigs were sedated with the anesthetic Telazol, if necessary, via intramuscular injection at an initial dose of 3-6 mg/kg. Any use of Telazol is indicated in the study data. Both the treprostinil-containing and placebo transdermal patches were applied to the dorsal surface of each of three female Göttingen Minipigs® weighing about 15-25 kg and were left in place for 24 hr. The dosing sites (the entire flank on both sides of the dorsal midline, caudal to the scapula) were carefully clipped with an electric clipper on the day prior to application of the patches and then were carefully washed with room temperature (RT) saline to remove dirt and debris. The prepared area was large enough to accommodate several patches. The dosing sites then were carefully shaved smooth with a razor while not causing any nick or cut. RT saline, but no shaving cream, could be used to assist shaving. The dosing sites were then wrapped with bandaging that was secured with a non-irritating, semi-occlusive tape (e.g., Elastikon tape). The minipigs were then fitted with a jacket. On the day of application of the patches, the jacket and wrapping were removed from the minipigs. The dosing sites were visually inspected to confirm the absence of any abrasion or obvious dermal pathology, and were gently cleaned with an isopropanol wipe and were then allowed to air-dry for at least 5 min. The patches were applied to areas of the skin without any abrasion or obvious dermal pathology by applying firm finger pressure to the peripheral adhesive area of the patches to ensure firm adherence of the peripheral area to the skin. To prevent detachment of the patches, TegadermTM dressing (or an equivalent transparent adhesive dressing, such as PatchProtectTM dressing) was applied over the patches, extending at least 2 inches beyond the edges of the patches and adhering to the peripheral area of the patches and to the skin surrounding the patches. The sites of patch application were wrapped with gauze or […] bandaging (or equivalent) that was secured with a non-irritating, semi-occlusive tape (e.g., Elastikon tape). The minipigs were then fitted with a jacket to prevent patch disturbance. The patches were kept in place at the dosing sites for 24 hr. […] Photographs of the sites of patch application were taken just prior to patch removal, following patch removal, and at 2 (±15 min), 24 (±1 hr), 48, 72, 96, 120, 144 and 168 hours after patch removal. The following scores are based on the Draize scale for scoring skin irritation [J. Draize et al., J. Pharmacol. Exp. Ther., 82:377-390 (1944)]. [table] [table]

[4] = Pharmacokinetics of transdermally delivered treprostinil from reservoir-type patch; settings: Göttingen, minipig, in vivo, four patches, total 160 mg treprostinil, in place 72 hr, two male minipigs
Source text: Pharmacokinetics (PK) following transdermal administration of treprostinil from a reservoir-type transdermal patch was studied in Göttingen Minipigs® (Marshall BioResources). The treprostinil-containing reservoir transdermal patch was a 39 cm^2 oval patch with a 12 cm^2 gel-sealed area and a 27 cm^2 peripheral skin-adhesive area. […] Naïve male Göttingen Minipigs® about 6 months of age at receipt and weighing about 23 kg at patch application were used in the PK study. To facilitate application of the transdermal patch, the minipigs were sedated with Telazol at 3 mg/kg via intramuscular injection. Prior to patch application the dosing sites on the minipigs were prepared similarly as described in Example 2, and patch application was performed similarly as described in Example 2 except that bandaging was reapplied to the sites of patch application once a day. Four transdermal patches containing a total of 160 mg treprostinil were applied at the same time to the dorsal surface of each of two minipigs and were left in place for 72 hr. Blood samples were collected within 1 hr prior to application of the patches; at 3, 6, 12, 24, 48 and 72 hours after application of the patches; and at 0.167, 0.5, 1, 2, 4 and 6 hours after removal of the patches.

[5] = cited from earlier work; remark: listed apart in the source
[6] = minipig 601, 2 hr post patch removal, 24 hr
[7] = minipig 601, 24 hr post patch removal, 24 hr
[8] = minipig 601, 48 hr post patch removal, 24 hr
[9] = minipig 601, 72 hr post patch removal, 24 hr
[10] = minipig 601, 96 hr post patch removal, 24 hr
[11] = minipig 601, 120 hr post patch removal, 24 hr
[12] = minipig 601, before patch application
[13] = minipig 602, 2 hr post patch removal, 24 hr
[14] = minipig 602, 24 hr post patch removal, 24 hr
[15] = minipig 602, 48 hr post patch removal, 24 hr
[16] = minipig 602, 72 hr post patch removal, 24 hr
[17] = minipig 602, 96 hr post patch removal, 24 hr
[18] = minipig 602, 120 hr post patch removal, 24 hr
[19] = minipig 602, before patch application
[20] = minipig 603, 2 hr post patch removal, 24 hr
[21] = minipig 603, 24 hr post patch removal, 24 hr
[22] = minipig 603, 48 hr post patch removal, 24 hr
[23] = minipig 603, 72 hr post patch removal, 24 hr
[24] = minipig 603, 96 hr post patch removal, 24 hr
[25] = minipig 603, 120 hr post patch removal, 24 hr
[26] = minipig 603, before patch application

Which systemic half-life ([1]; free acid, due to significant metabolism) does the source give for `CCCCC[C@H](O)CC[C@@H]1[C@H]2Cc3cccc(OCC(=O)O)c3C[C@H]2C[C@H]1O` [Treprostinil] here?
The systemic half-life was “very short”.

What about the absolute oral bioavailability ([1]; treprostinil as the free acid, oral) of the same compound?
Its absolute oral bioavailability is “less than 10%”.

And the “cumulative skin permeability at 72 hours” value [2]?
Its value is “high”.

What about the Edema score [3, 6] of the same compound?
The Edema score was 0.

And the Erythema score [3, 6]?
The Erythema score was 1.

What about the Edema score [3, 7] of the same compound?
Its Edema score is 0.

And the Erythema score [3, 7]?
The Erythema score was 1.

What about the Edema score [3, 8] of the same compound?
The Edema score was 0.

And the Erythema score [3, 8]?
Its Erythema score is 1.

And the Edema score [3, 9]?
The Edema score was 0.

What about the Erythema score [3, 9] of the same compound?
The Erythema score was 0.

What about the Edema score [3, 10] of the same compound?
Its Edema score is 0.

What about the Erythema score [3, 10] of the same compound?
Its Erythema score is 0.

And the Edema score [3, 11]?
The Edema score was 0.

What about the Erythema score [3, 11] of the same compound?
The Erythema score was 0.

And the Edema score [3, 12]?
The Edema score was 0.

What about the Erythema score [3, 12] of the same compound?
Its Erythema score is 0.

And the Edema score [3, 13]?
Its Edema score is 0.

What about the Erythema score [3, 13] of the same compound?
Its Erythema score is 1.

And the Edema score [3, 14]?
Its Edema score is 0.

And the Erythema score [3, 14]?
Its Erythema score is 1.

And the Edema score [3, 15]?
The Edema score was 0.

What about the Erythema score [3, 15] of the same compound?
The Erythema score was 0.

And the Edema score [3, 16]?
Its Edema score is 0.

What about the Erythema score [3, 16] of the same compound?
The Erythema score was 0.

And the Edema score [3, 17]?
The Edema score was 0.

What about the Erythema score [3, 17] of the same compound?
Its Erythema score is 0.

What about the Edema score [3, 18] of the same compound?
The Edema score was 0.

And the Erythema score [3, 18]?
Its Erythema score is 0.

What about the Edema score [3, 19] of the same compound?
The Edema score was 0.

What about the Erythema score [3, 19] of the same compound?
Its Erythema score is 0.

And the Edema score [3, 20]?
Its Edema score is 0.

And the Erythema score [3, 20]?
The Erythema score was 2.

What about the Edema score [3, 21] of the same compound?
Its Edema score is 0.

And the Erythema score [3, 21]?
Its Erythema score is 2.

What about the Edema score [3, 22] of the same compound?
Its Edema score is 0.

And the Erythema score [3, 22]?
The Erythema score was 0.

And the Edema score [3, 23]?
The Edema score was 0.

What about the Erythema score [3, 23] of the same compound?
The Erythema score was 0.

What about the Edema score [3, 24] of the same compound?
Its Edema score is 0.

What about the Erythema score [3, 24] of the same compound?
The Erythema score was 0.

And the Edema score [3, 25]?
Its Edema score is 0.

What about the Erythema score [3, 25] of the same compound?
Its Erythema score is 0.

And the Edema score [3, 26]?
Its Edema score is 0.

And the Erythema score [3, 26]?
Its Erythema score is 0.

What about the “skin irritation (summary)” value ([3]; reservoir patch 10 mg treprostinil with isopropyl myristate and ethanol, in place 24 hr, three female minipigs) of the same compound?
Its value is “did not cause significant skin irritation”.

What about the concentration at 72 hr ([4]; other: transdermal (reservoir-type patch), read-out: C72 hr) of the same compound?
The concentration at 72 hr was 2.4 to 4.9 ng/mL.

And the Cmax ([4]; topical or ocular)?
The Cmax was 20.8 to 27.6 ng/mL.

What about the Tmax ([4]; topical or ocular) of the same compound?
The Tmax was 6 h.

And the AUC(0-t) ([4]; topical or ocular, read-out: AUC0-72)?
The AUC(0-t) was 429 to 946 ng·h/mL.

What about the half-life ([4]; topical or ocular, read-out: half-life (T1/2) during treatment) of the same compound?
Its half-life is 28 to 35 h.

And the “peak-to-trough ratio of plasma concentrations” value ([5]; administered by inhalation)?
Its value is “large”.

And the “PAH patients who cannot take inhaled treprostinil due to irritation to the lungs” value ([5]; inhalation)?
Its value is “about 50%”.
